Test results taken from patent US20250302815A1, “PROTEIN TYROSINE PHOSPHATASE TARGETING LIGANDS” (CALICO LIFE SCIENCES LLC, priority 2021, published 2025).

Tests used:
[1] = biological target: T1, PTPN2 (HiBIT-PTPN2 in 293T.109 cells) (Homo sapiens, UniProt P17706); assay: HiBiT Degradation 293T.109 PTPN2 (Nano-Glo HiBiT Lytic Assay); format: cell-based; settings: 24.0 hours
T1 construct: expressed in transfected cells; host or cells: 293T.109 (293T WT from ATCC)
T1 sequence (P17706 1-415): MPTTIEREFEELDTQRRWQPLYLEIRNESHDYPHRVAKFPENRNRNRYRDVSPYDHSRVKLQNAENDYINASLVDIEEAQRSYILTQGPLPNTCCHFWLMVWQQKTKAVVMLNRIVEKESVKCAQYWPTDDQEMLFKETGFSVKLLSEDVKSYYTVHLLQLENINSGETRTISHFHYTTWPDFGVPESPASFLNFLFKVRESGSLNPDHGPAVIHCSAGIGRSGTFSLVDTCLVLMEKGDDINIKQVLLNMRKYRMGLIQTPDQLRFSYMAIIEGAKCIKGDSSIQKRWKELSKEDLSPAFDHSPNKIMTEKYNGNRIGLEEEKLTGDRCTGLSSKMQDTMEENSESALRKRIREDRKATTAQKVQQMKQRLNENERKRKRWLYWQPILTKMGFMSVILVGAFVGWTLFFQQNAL
Outline: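 293T.109 cells with ectopic N-terminal HiBiT-tagged PTPN2 (5000/well) exposed to compounds for 24 h at 37 °C, 5% CO2; 11-point half-log titration from 10 μM top, duplicates. Remaining HiBiT-PTPN2 read as luminescence with Nano-Glo HiBiT lytic reagent, normalised to untreated cells (0%) and reagent-free wells.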

[2] = biological target: T2, PTPN2 (B16F10.4 cells) (Mus musculus, UniProt Q06180); assay: HiBiT Degradation B16F10.4 PTPN2; format: cell-based; settings: 24.0 hours
T2 construct: HiBiT; host or cells: B16F10.4
T2 sequence (Q06180 1-406): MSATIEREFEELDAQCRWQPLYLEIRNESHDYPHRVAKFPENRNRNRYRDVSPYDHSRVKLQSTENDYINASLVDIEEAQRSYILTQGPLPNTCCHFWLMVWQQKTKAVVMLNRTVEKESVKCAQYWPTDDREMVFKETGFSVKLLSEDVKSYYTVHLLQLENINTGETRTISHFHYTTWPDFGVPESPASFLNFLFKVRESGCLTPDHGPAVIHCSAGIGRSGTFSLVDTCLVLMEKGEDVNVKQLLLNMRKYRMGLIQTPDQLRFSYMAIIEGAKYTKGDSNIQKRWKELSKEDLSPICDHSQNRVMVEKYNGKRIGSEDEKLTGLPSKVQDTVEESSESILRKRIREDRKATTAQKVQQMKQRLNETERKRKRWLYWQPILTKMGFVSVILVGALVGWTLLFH

DC50 [1] | DC50 [2] | Compound
200 to 1000 nM | < 50 nM | CC1(C)C[C@@H](Oc2cccc(-c3sc(C(=O)O)c(OCC(=O)O)c3Cl)c2)CCN1S(=O)(=O)Cc1cccc(NC(=O)N2CCC(c3ccc4c5c(cccc35)C(=O)N4C3CCC(=O)NC3=O)CC2)c1 (stereo partly drawn) [Example 228, 3-(carboxymethoxy)-4-chloro-5-(3-(((4S)-1-((3-(4-(1-(2,6-dioxopiperidin-3-yl)-2-oxo-1,2-dihydrobenzo[cd]indol-6-yl)piperidine-1-carboxamido)benzyl)sulfonyl)-2,2-dimethylpiperidin-4-yl)oxy)phenyl)thiophene-2-carboxylic acid]
50 to 200 nM | ≥ 1000 nM | CC1(C)C[C@@H](Nc2cccc(-c3sc(C(=O)O)c(OCC(=O)O)c3Cl)c2)CCN1S(=O)(=O)Cc1cccc(NC(=O)C2CCN(C(=O)CNc3ccc4c(c3)C(=O)N(C3CCC(=O)NC3=O)C4=O)CC2)c1 (stereo partly drawn) [Example 43, 3-(carboxymethoxy)-4-chloro-5-[3-[[(4S)-1-[[3-[[1-[2-[[2-(2,6-dioxo-3-piperidyl)-1,3-dioxo-isoindolin-5-yl]amino]acetyl]piperidine-4-carbonyl]amino]phenyl]methylsulfonyl]-2,2-dimethyl-4-piperidyl]amino]phenyl]thiophene-2-carboxylic acid]
50 to 200 nM | ≥ 1000 nM | CC1(C)C[C@H](Nc2cccc(-c3sc(C(=O)O)c(OCC(=O)O)c3Cl)c2)CCN1S(=O)(=O)Cc1ccc(F)c(NC(=O)C2CN(C(=O)CNc3cccc4c3CN(C3CCC(=O)NC3=O)C4=O)C2)c1 (stereo partly drawn) [Example 108]
< 50 nM | 50 to 200 nM | Cn1c(=O)n(C2CCC(=O)NC2=O)c2ccc(NC3CN(C(=O)Nc4cccc(CS(=O)(=O)N5CC[C@H](Nc6cccc(-c7sc(C(=O)O)c(OCC(=O)O)c7Cl)c6)CC5(C)C)c4)C3)cc21 (stereo partly drawn) [Example 79]
200 to 1000 nM | 200 to 1000 nM | O=C(O)COc1c(C(=O)O)sc(-c2cccc(NC3CCN(S(=O)(=O)Cc4cccc(NC(=O)CCOCCOCCOCCCc5ccc6c(c5)CN(C5CCC(=O)NC5=O)C6=O)c4)CC3)c2)c1Cl (stereo not drawn) [Example 19, 3-(carboxymethoxy)-4-chloro-5-(3-((1-((3-(3-(2-(2-(3-(2-(2,6-dioxopiperidin-3-yl)-1-oxoisoindolin-5-yl)propoxy)ethoxy)ethoxy)propanamido)benzyl)sulfonyl)piperidin-4-yl)amino)phenyl)thiophene-2-carboxylic acid]
50 to 200 nM | ≥ 1000 nM | CC1(C)C[C@@H](Nc2cccc(-c3sc(C(=O)O)c(OCC(=O)O)c3Cl)c2)CCN1S(=O)(=O)Cc1cccc(NC(=O)C2CN(C(=O)CNc3ccc4c(c3)CN(C3CCC(=O)NC3=O)C4=O)C2)c1 (stereo partly drawn) [Example 57, 3-(carboxymethoxy)-4-chloro-5-[3-[[(4S)-1-[[3-[[1-[2-[[2-(2,6-dioxo-3-piperidyl)-1-oxo-isoindolin-5-yl]amino]acetyl]azetidine-3-carbonyl]amino]phenyl]methylsulfonyl]-2,2-dimethyl-4-piperidyl]amino]phenyl]thiophene-2-carboxylic acid]
50 to 200 nM | 50 to 200 nM | C[C@@H]1CN(C(=O)Nc2cccc(CS(=O)(=O)N3CC[C@H](Nc4cccc(-c5sc(C(=O)O)c(OCC(=O)O)c5Cl)c4)CC3(C)C)c2)CCN1c1ccc2c(c1)n(C)c(=O)n2C1CCC(=O)NC1=O (stereo partly drawn) [Example 209, 3-(carboxymethoxy)-4-chloro-5-[3-[[(4S)-1-[[3-[[(3R)-4-[1-(2,6-dioxo-3-piperidyl)-3-methyl-2-oxo-benzimidazol-5-yl]-3-methyl-piperazine-1-carbonyl]amino]phenyl]methylsulfonyl]-2,2-dimethyl-4-piperidyl]amino]phenyl]thiophene-2-carboxylic acid]
200 to 1000 nM | ≥ 1000 nM | O=C(O)COc1c(C(=O)O)sc(-c2cccc(NC3CCN(S(=O)(=O)Cc4cccc(NC(=O)CCCCCCNC(=O)CNc5cccc6c5C(=O)N(C5CCC(=O)NC5=O)C6)c4)CC3)c2)c1Cl (stereo not drawn) [Example 30, 3-(carboxymethoxy)-4-chloro-5-[3-[[1-[[3-[7-[[2-[[2-(2,6-dioxo-3-piperidyl)-3-oxo-isoindolin-4-yl]amino]acetyl]amino]heptanoylamino]phenyl]methylsulfonyl]-4-piperidyl]amino]phenyl]thiophene-2-carboxylic acid]
200 to 1000 nM | 200 to 1000 nM | CC1Cc2cc(C3CCN(C(=O)Nc4cccc(CS(=O)(=O)N5CC[C@H](Nc6cccc(-c7sc(C(=O)O)c(OCC(=O)O)c7Cl)c6)CC5(C)C)c4)CC3)ccc2N1C1CCC(=O)NC1=O (stereo partly drawn) [Example 95, 3-(carboxymethoxy)-4-chloro-5-[3-[[(4S)-1-[[3-[[4-[1-(2,6-dioxo-3-piperidyl)-2-methyl-indolin-5-yl]piperidine-1-carbonyl]amino]phenyl]methylsulfonyl]-2,2-dimethyl-4-piperidyl]amino]phenyl]thiophene-2-carboxylic acid]
200 to 1000 nM | 200 to 1000 nM | CC1(C)C[C@@H](Nc2cccc(-c3sc(C(=O)O)c(OCC(=O)O)c3Cl)c2)CCN1S(=O)(=O)Cc1cccc(NC(=O)N2CCC(c3ccc4c(c3)n(C3CCOCC3)c(=O)n4C3CCC(=O)NC3=O)CC2)c1 (stereo partly drawn) [Example 159, 3-(carboxymethoxy)-4-chloro-5-(3-(((4S)-1-((3-(4-(1-(2,6-dioxopiperidin-3-yl)-2-oxo-3-(tetrahydro-2H-pyran-4-yl)-2,3-dihydro-1H-benzo[d]imidazol-5-yl)piperidine-1-carboxamido)benzyl)sulfonyl)-2,2-dimethylpiperidin-4-yl)amino)phenyl)thiophene-2-carboxylic acid]
< 50 nM | < 50 nM | CC1(C)C[C@@H](Nc2cccc(-c3sc(C(=O)O)c(OCC(=O)O)c3Cl)c2)CCN1S(=O)(=O)Cc1cccc(N2CCN(C3CCN(c4ccc5c6c(cccc46)C(=O)N5C4CCC(=O)NC4=O)CC3)C2=O)c1 (stereo partly drawn) [Example 189, 3-(carboxymethoxy)-4-chloro-5-(3-(((4S)-1-((3-(3-(1-(1-(2,6-dioxopiperidin-3-yl)-2-oxo-1,2-dihydrobenzo[cd]indol-6-yl)piperidin-4-yl)-2-oxoimidazolidin-1-yl)benzyl)sulfonyl)-2,2-dimethylpiperidin-4-yl)amino)phenyl)thiophene-2-carboxylic acid]
50 to 200 nM | 200 to 1000 nM | Cn1c(=O)n(C2CCC(=O)NC2=O)c2cccc(CCC(=O)Nc3cccc(CS(=O)(=O)N4CCC(Nc5cccc(-c6sc(C(=O)O)c(OCC(=O)O)c6Cl)c5)CC4)c3)c21 (stereo not drawn) [Example 53]
50 to 200 nM | 50 to 200 nM | Cn1c(=O)n(C2CCC(=O)NC2=O)c2ccc(-c3cccc(CC(=O)Nc4cccc(CS(=O)(=O)N5CC[C@H](Nc6cccc(-c7sc(C(=O)O)c(OCC(=O)O)c7Cl)c6)CC5(C)C)c4)c3)cc21 (stereo partly drawn) [Example 192, 3-(carboxymethoxy)-4-chloro-5-(3-(((4S)-1-((3-(2-(3-(1-(2,6-dioxopiperidin-3-yl)-3-methyl-2-oxo-2,3-dihydro-1H-benzo[d]imidazol-5-yl)phenyl)acetamido)benzyl)sulfonyl)-2,2-dimethylpiperidin-4-yl)amino)phenyl)thiophene-2-carboxylic acid]
200 to 1000 nM | 50 to 200 nM | Cn1c(=O)n(C2CCC(=O)NC2=O)c2ccc(C3CCN(C(=O)Nc4cccc(CS(=O)(=O)N5CC[C@H](Nc6cc(-c7sc(C(=O)O)c(OCC(=O)O)c7Cl)ccc6F)CC5(C)C)c4)CC3)cc21 (stereo partly drawn) [Example 132, 3-(carboxymethoxy)-4-chloro-5-[3-[[(4S)-1-[[3-[[4-[1-(2,6-dioxo-3-piperidyl)-3-methyl-2-oxo-benzimidazol-5-yl]piperidine-1-carbonyl]amino]phenyl]methylsulfonyl]-2,2-dimethyl-4-piperidyl]amino]-4-fluoro-phenyl]thiophene-2-carboxylic acid]
50 to 200 nM | 50 to 200 nM | CC(C)n1c(=O)n(C2CCC(=O)NC2=O)c2ccc(C3CCN(CC(=O)Nc4cccc(CS(=O)(=O)N5CC[C@H](Nc6cccc(-c7sc(C(=O)O)c(OCC(=O)O)c7Cl)c6)CC5(C)C)c4)CC3)cc21 (stereo partly drawn) [Example 204, 3-(carboxymethoxy)-4-chloro-5-(3-(((4S)-1-((3-(2-(4-(1-(2,6-dioxopiperidin-3-yl)-3-isopropyl-2-oxo-2,3-dihydro-1H-benzo[d]imidazol-5-yl)piperidin-1-yl)acetamido)benzyl)sulfonyl)-2,2-dimethylpiperidin-4-yl)amino)phenyl)thiophene-2-carboxylic acid]
